Results from patent publication US12673975B2, “Cyclic peptide, cell scaffold material, cell separating material, and medium” (FUJIFILM Corporation, priority 2019, dated 2026).
Like-named read-outs stand apart in the source and are kept apart here. Starred links: 1 amine or outer side, 2 acyl side, 3 side chain; linkers in the order of their positions; H or OH if unused. Positions of bridges follow the written chain, without caps; N, C: chain ends. Non-standard residues stand in square brackets, D forms with d. Residues, ends and D or L forms follow the SMILES beside them. hCys = N[C@@H](CCS)C(=O)O; Orn = NCCC[C@H](N)C(=O)O; Dab = NCC[C@H](N)C(=O)O; Dap = NC[C@H](N)C(=O)O; X1 = O=C(C[*:2])[*:1]; X2 = O=C(C[*:1])[*:2]

Legend:
[1] = target: human integrin αvβ5 (Homo sapiens, UniProt P06756+P18084); test: Evaluation of integrin binding property (surface plasmon resonance, Biacore 3000, immobilized cyclic peptide)
How it was run: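 Human αvβ5 (30-1,000 nM) flowed for 10 min at 25 °C over immobilized cyclic peptide in 20 mM HEPES, 150 mM NaCl, 5 mM MgCl2, pH 7.4, followed by 30 min running buffer and 0.5 M EDTA regeneration. Dissociation constant from peptide minus unimmobilized channel, scored into standard grades.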

[2] = Evaluation of molecule stability (alkali treatment, residual rate by LC/MS); type: physicochemical; details: for Performance evaluation: Stability (residual rate of cyclic peptide after alkali treatment): 500 μM peptide aqueous solution plus equivalent of 1 M sodium hydroxide, 15° C., 3 hours, LC/MS peak area; for Stability (molecule stability, residual rate of the cyclic peptide rank): alkali treatment, residual rate by LC/MS
How it was run: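 Stability read as percent of summed LC/MS peak area remaining versus untreated peptide (C18, 45 °C, 10 mM ammonium formate pH 3, ESI positive/negative). Treatment: 500 μM peptide in water plus an equivalent of 1 M NaOH, 15 °C for 3 hours.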

[3] = SPR, 25° C., HEPES buffer with 5 mM magnesium chloride, integrin 30-1,000 nM, read-out: Performance evaluation: Binding activity (dissociation constant between the cyclic peptide and human integrin αvβ5)
[4] = surface plasmon resonance, immobilized cyclic peptide, human integrin αvβ5, read-out: Binding activity (integrin binding property, dissociation constant rank)

Sequence of human integrin αvβ5 (P06756 31-1048): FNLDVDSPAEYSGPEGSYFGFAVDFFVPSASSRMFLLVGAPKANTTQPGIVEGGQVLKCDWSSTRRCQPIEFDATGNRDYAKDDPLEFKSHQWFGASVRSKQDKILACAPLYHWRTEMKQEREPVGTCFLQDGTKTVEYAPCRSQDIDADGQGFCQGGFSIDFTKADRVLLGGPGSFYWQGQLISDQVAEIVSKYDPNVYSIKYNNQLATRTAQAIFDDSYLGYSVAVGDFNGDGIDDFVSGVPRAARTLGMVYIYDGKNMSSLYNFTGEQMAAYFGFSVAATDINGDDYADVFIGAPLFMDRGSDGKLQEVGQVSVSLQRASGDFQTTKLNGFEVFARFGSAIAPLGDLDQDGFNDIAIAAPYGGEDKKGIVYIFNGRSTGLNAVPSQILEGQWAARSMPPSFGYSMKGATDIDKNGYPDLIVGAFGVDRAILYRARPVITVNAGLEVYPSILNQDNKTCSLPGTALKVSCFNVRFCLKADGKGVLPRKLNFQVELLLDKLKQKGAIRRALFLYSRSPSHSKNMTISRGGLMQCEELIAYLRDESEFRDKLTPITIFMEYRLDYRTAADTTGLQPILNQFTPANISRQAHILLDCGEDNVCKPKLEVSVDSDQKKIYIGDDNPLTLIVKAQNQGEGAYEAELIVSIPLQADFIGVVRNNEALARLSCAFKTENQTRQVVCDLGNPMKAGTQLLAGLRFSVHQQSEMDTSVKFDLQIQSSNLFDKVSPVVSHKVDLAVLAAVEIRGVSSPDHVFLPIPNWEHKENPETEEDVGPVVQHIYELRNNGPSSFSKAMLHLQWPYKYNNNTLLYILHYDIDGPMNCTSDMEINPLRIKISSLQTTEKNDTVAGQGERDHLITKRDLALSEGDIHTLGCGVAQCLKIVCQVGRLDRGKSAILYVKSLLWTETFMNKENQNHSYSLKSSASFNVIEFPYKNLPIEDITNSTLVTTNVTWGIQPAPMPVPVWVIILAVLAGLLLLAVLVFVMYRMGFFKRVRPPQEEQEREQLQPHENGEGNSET
Sequence of human integrin αvβ5 (P18084 24-799): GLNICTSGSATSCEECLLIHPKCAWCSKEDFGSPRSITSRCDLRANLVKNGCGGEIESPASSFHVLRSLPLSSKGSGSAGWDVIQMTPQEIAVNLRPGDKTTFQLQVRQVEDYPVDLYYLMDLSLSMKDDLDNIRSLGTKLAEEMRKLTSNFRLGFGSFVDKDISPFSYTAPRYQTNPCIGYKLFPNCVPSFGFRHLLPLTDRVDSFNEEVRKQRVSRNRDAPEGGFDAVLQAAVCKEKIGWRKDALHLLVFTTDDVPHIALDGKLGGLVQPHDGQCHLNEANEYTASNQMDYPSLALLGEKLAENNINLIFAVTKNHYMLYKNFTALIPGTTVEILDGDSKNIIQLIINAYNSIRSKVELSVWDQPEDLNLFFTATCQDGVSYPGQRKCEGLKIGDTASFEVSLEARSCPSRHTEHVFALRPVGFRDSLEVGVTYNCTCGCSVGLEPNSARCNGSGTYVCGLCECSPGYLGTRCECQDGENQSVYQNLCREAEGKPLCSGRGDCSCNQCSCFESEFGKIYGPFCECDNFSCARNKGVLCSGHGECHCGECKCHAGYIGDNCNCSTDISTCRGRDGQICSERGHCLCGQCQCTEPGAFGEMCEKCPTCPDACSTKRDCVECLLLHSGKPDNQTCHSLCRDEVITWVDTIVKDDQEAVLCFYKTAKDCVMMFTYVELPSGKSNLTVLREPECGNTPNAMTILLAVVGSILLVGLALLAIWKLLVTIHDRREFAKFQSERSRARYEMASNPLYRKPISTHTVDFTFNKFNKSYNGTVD

| SMILES | Kd [1, 3] [nM] | Kd [1, 4] [nM] | Performance evaluation: Stability (residual rate of cyclic peptide after alkali treatment) [2] | Stability (molecule stability, residual rate of the cyclic peptide rank) [2] | also measured |
| --- | --- | --- | --- | --- | --- |
| C[C@H](NC(=O)[C@H](CCCCN)NC(=O)[C@H](CCCCN)NC(=O)[C@@H](N)CCCCN)C(=O)N[C@H]1CCSCC(=O)NCC[C@@H](C(=O)N[C@@H](CC(=O)O)C(=O)O)NC(=O)[C@H](CCCNC(=N)N)NC(=O)[C@H](Cc2ccccc2)NC(=O)[C@H](CC(N)=O)NC(=O)[C@H](CC(=O)O)NC(=O)CNC(=O)[C@H](CCCNC(=N)N)NC(=O)[C@@H]2CCCN2C(=O)[C@H](CCC(=O)O)NC1=O [Cyclic peptide 34, KKKA-(Hcy)-EPRGDNFR(Dab(acetyl))D] (H-KKKA[hCys]EPRGDNFR[Dab]D-OH; linker 5-14 via X2) | < 50 |  | A (The residual rate of the cyclic peptide is 70% or more.) |  |  |
| CC(C)[C@@H]1NC(=O)[C@@H](NC(=O)CNC(=O)[C@H](CCCCN)NC(=O)[C@H](CCCCN)NC(=O)[C@@H](N)CCCCN)CCSCC(=O)NCC[C@@H](C(=O)NCC(=O)O)NC(=O)[C@H](C)NC(=O)[C@H](Cc2ccccc2)NC(=O)[C@H]([C@@H](C)O)NC(=O)[C@H](CC(=O)O)NC(=O)CNC(=O)[C@H](CCCNC(=N)N)NC(=O)[C@@H]2CCCN2C1=O [Cyclic peptide 105, KKKG-(Hcy)-VPRGDTFA(Dab(acetyl))G] (H-KKKG[hCys]VPRGDTFA[Dab]G-OH; linker 5-14 via X2) |  |  |  | A (The residual rate of the cyclic peptide is 70% or more.) | Kd [1]: < 50 nM |
| CC[C@H](C)[C@@H]1NC(=O)[C@@H](NC(=O)CNC(=O)[C@H](CCCCN)NC(=O)[C@H](CCCCN)NC(=O)[C@@H](N)CCCCN)CCSCC(=O)NCCC[C@@H](C(=O)N[C@@H](C)C(=O)O)NC(=O)[C@H](CCCNC(=N)N)NC(=O)[C@H](Cc2ccccc2)NC(=O)[C@H]([C@@H](C)O)NC(=O)[C@H](CC(=O)O)NC(=O)CNC(=O)[C@H](CCCNC(=N)N)NC(=O)[C@@H]2CCCN2C1=O [Cyclic peptide 115, KKKG-(Hcy)-IPRGDTFR(Orn(acetyl))A] (H-KKKG[hCys]IPRGDTFR[Orn]A-OH; linker 5-14 via X2) |  | < 50 |  | A (The residual rate of the cyclic peptide is 70% or more.) |  |
| C[C@H](NC(=O)[C@H](CCCCN)NC(=O)[C@H](CCCCN)NC(=O)[C@@H](N)CCCCN)C(=O)N[C@H]1CNC(=O)CSCC[C@@H](C(=O)N[C@@H](CC(=O)O)C(=O)O)NC(=O)[C@H](CCCNC(=N)N)NC(=O)[C@H](Cc2ccc(O)cc2)NC(=O)[C@H](CC(N)=O)NC(=O)[C@H](CC(=O)O)NC(=O)CNC(=O)[C@H](CCCNC(=N)N)NC(=O)[C@@H]2CCCN2C(=O)[C@H](CCC(=O)O)NC1=O [Cyclic peptide 48, KKKA(Dap(acetyl))EPRGDNYR-(Hcy)-D] (H-KKKA[Dap]EPRGDNYR[hCys]D-OH; linker 5-14 via X1) | < 50 |  | B (The residual rate of the cyclic peptide is 50% or more and less than 70%.) |  |  |
| CC[C@H](C)[C@@H]1NC(=O)[C@@H](NC(=O)[C@H](CCCCN)NC(=O)[C@H](CCCCN)NC(=O)[C@@H](N)CCCCN)CCSCC(=O)NCC[C@@H](C(=O)N[C@@H](C)C(=O)O)NC(=O)[C@H](CCCNC(=N)N)NC(=O)[C@H](Cc2ccccc2)NC(=O)[C@H](CO)NC(=O)[C@H](CC(=O)O)NC(=O)CNC(=O)[C@H](CCCNC(=N)N)NC(=O)[C@@H]2CCCN2C1=O [Cyclic peptide 25, KKK-(Hcy)-IPRGDSFR(Dab(acetyl))A] (H-KKK[hCys]IPRGDSFR[Dab]A-OH; linker 4-13 via X2) | 50 to 100 |  | A (The residual rate of the cyclic peptide is 70% or more.) |  |  |
| CC[C@H](C)[C@@H]1NC(=O)[C@@H](NC(=O)CNC(=O)[C@H](CCCCN)NC(=O)[C@H](CCCCN)NC(=O)[C@@H](N)CCCCN)CCSCC(=O)NCC[C@@H](C(=O)N[C@@H](C)C(=O)O)NC(=O)[C@H](C)NC(=O)[C@H](Cc2ccccc2)NC(=O)[C@H](CO)NC(=O)[C@H](CC(=O)O)NC(=O)CNC(=O)[C@H](CCCNC(=N)N)NC(=O)[C@@H]2CCCN2C1=O [Cyclic peptide 94, KKKG-(Hcy)-IPRGDSFA(Dab(acetyl))A] (H-KKKG[hCys]IPRGDSFA[Dab]A-OH; linker 5-14 via X2) | < 50 |  | A (The residual rate of the cyclic peptide is 70% or more.) |  |  |
| C[C@H](NC(=O)[C@H](CCCCN)NC(=O)[C@H](CCCCN)NC(=O)[C@@H](N)CCCCN)C(=O)N[C@H]1CCSCC(=O)NCC[C@@H](C(=O)N[C@@H](CC(=O)O)C(=O)O)NC(=O)[C@H](CCCNC(=N)N)NC(=O)[C@H](Cc2ccc(O)cc2)NC(=O)[C@H](CC(N)=O)NC(=O)[C@H](CC(=O)O)NC(=O)CNC(=O)[C@H](CCCNC(=N)N)NC(=O)[C@@H]2CCCN2C(=O)[C@H](CCC(=O)O)NC1=O [Cyclic peptide 42, KKKA-(Hcy)-EPRGDNYR(Dab(acetyl))D] (H-KKKA[hCys]EPRGDNYR[Dab]D-OH; linker 5-14 via X2) | 50 to 100 |  | A (The residual rate of the cyclic peptide is 70% or more.) |  |  |
| CC(C)[C@@H]1NC(=O)[C@@H](NC(=O)[C@H](C)NC(=O)[C@H](CCCCN)NC(=O)[C@H](CCCCN)NC(=O)[C@@H](N)CCCCN)CCSCC(=O)NCC[C@@H](C(=O)NCC(=O)O)NC(=O)[C@H](C)NC(=O)[C@H](Cc2ccccc2)NC(=O)[C@H]([C@@H](C)O)NC(=O)[C@H](CC(=O)O)NC(=O)CNC(=O)[C@H](CCCNC(=N)N)NC(=O)[C@@H]2CCCN2C1=O [Cyclic peptide 107, KKKA-(Hcy)-VPRGDTFA(Dab(acetyl))G] (H-KKKA[hCys]VPRGDTFA[Dab]G-OH; linker 5-14 via X2) |  | < 50 |  | A (The residual rate of the cyclic peptide is 70% or more.) |  |
| CC[C@H](C)[C@@H]1NC(=O)[C@@H](NC(=O)[C@H](C)NC(=O)[C@H](CCCCN)NC(=O)[C@H](CCCCN)NC(=O)[C@@H](N)CCCCN)CCSCC(=O)NCC[C@@H](C(=O)N[C@@H](C)C(=O)O)NC(=O)[C@H](CCCNC(=N)N)NC(=O)[C@H](Cc2ccccc2)NC(=O)[C@H](C(C)C)NC(=O)[C@H](CC(=O)O)NC(=O)CNC(=O)[C@H](CCCNC(=N)N)NC(=O)[C@@H]2CCCN2C1=O [Cyclic peptide 78, KKKA-(Hcy)-IPRGDVFR(Dab(acetyl))A] (H-KKKA[hCys]IPRGDVFR[Dab]A-OH; linker 5-14 via X2) | < 50 |  | A (The residual rate of the cyclic peptide is 70% or more.) |  |  |

Further lines, with some results ahead:

| Kd [1, 3] [nM] | Kd [1, 4] [nM] | SMILES | Performance evaluation: Stability (residual rate of cyclic peptide after alkali treatment) [2] | Stability (molecule stability, residual rate of the cyclic peptide rank) [2] | also measured |
| --- | --- | --- | --- | --- | --- |
|  | 50 to 100 | C[C@H](NC(=O)[C@@H]1CCNC(=O)CSCC[C@H](NC(=O)[C@H](C)NC(=O)[C@H](CCCCN)NC(=O)[C@H](CCCCN)NC(=O)[C@@H](N)CCCCN)C(=O)N[C@@H]([C@@H](C)O)C(=O)N[C@@H]([C@@H](C)O)C(=O)N[C@@H](CCCNC(=N)N)C(=O)NCC(=O)N[C@@H](CC(=O)O)C(=O)N[C@@H](CO)C(=O)N[C@@H](Cc2ccccc2)C(=O)N[C@@H](C)C(=O)N1)C(=O)O [Cyclic peptide 161, KKKA-(Hcy)-TTRGDSFA(Dab(acetyl))A] (H-KKKA[hCys]TTRGDSFA[Dab]A-OH; linker 5-14 via X2) |  | A (The residual rate of the cyclic peptide is 70% or more.) |  |
|  | < 50 | CC[C@H](C)[C@@H]1NC(=O)[C@@H](NC(=O)CNC(=O)[C@H](CCCCN)NC(=O)[C@H](CCCCN)NC(=O)[C@@H](N)CCCCN)CNC(=O)CSCC[C@@H](C(=O)N[C@@H](C)C(=O)O)NC(=O)[C@H](CCCNC(=N)N)NC(=O)[C@H](Cc2ccccc2)NC(=O)[C@H]([C@@H](C)O)NC(=O)[C@H](CC(=O)O)NC(=O)CNC(=O)[C@H](CCCNC(=N)N)NC(=O)[C@@H]2CCCN2C1=O [Cyclic peptide 117, KKKG(Dap(acetyl))IPRGDTFR-(Hcy)-A] (H-KKKG[Dap]IPRGDTFR[hCys]A-OH; linker 5-14 via X1) |  | B (The residual rate of the cyclic peptide is 50% or more and less than 70%.) |  |
|  | < 50 | C[C@H](NC(=O)[C@H](CCCCN)NC(=O)[C@H](CCCCN)NC(=O)[C@@H](N)CCCCN)C(=O)N[C@H]1CNC(=O)CSC[C@@H](C(=O)O)NC(=O)[C@H](CCCNC(=N)N)NC(=O)[C@H](Cc2ccc(O)cc2)NC(=O)[C@H](CC(N)=O)NC(=O)[C@H](CC(=O)O)NC(=O)CNC(=O)[C@H](CCCNC(=N)N)NC(=O)[C@@H]2CCCN2C(=O)[C@H](CCC(=O)O)NC1=O [Cyclic peptide 166, KKKA(Dap(acetyl))EPRGDNYR(C), reference compound] (H-KKKA[Dap]EPRGDNYRC-OH; linker 5-14 via X1) |  | D (The residual rate of the cyclic peptide is less than 30%.) | molecule stability (in words) ([2]; summary of Table 9 to Table 13): a practically sufficient molecule stability could be obtained |
|  | < 50 | CC(C)[C@@H]1NC(=O)[C@@H](NC(=O)[C@H](CCCCN)NC(=O)[C@H](CCCCN)NC(=O)[C@@H](N)CCCCN)CCSCC(=O)NCC[C@@H](C(=O)O)NC(=O)[C@H](C)NC(=O)[C@H](Cc2ccccc2)NC(=O)[C@H]([C@@H](C)O)NC(=O)[C@H](CC(=O)O)NC(=O)CNC(=O)[C@H](CCCNC(=N)N)NC(=O)[C@H]([C@@H](C)O)NC1=O [Cyclic peptide 150, KKK-(Hcy)-VTRGDTFA(Dab(acetyl))] (H-KKK[hCys]VTRGDTFA[Dab]-OH; linker 4-13 via X2) |  | A (The residual rate of the cyclic peptide is 70% or more.) |  |
